# Results reported in ChEMBL document CHEMBL4346693, “Exploring the PROTAC degron candidates: OBHSA with different side chains as novel selective estrogen receptor degraders (SERDs)” (Eur J Med Chem, 2019).
# Target: T1, Estrogen receptor (Homo sapiens) (UniProt P03372)
# T1 sequence (whole entry): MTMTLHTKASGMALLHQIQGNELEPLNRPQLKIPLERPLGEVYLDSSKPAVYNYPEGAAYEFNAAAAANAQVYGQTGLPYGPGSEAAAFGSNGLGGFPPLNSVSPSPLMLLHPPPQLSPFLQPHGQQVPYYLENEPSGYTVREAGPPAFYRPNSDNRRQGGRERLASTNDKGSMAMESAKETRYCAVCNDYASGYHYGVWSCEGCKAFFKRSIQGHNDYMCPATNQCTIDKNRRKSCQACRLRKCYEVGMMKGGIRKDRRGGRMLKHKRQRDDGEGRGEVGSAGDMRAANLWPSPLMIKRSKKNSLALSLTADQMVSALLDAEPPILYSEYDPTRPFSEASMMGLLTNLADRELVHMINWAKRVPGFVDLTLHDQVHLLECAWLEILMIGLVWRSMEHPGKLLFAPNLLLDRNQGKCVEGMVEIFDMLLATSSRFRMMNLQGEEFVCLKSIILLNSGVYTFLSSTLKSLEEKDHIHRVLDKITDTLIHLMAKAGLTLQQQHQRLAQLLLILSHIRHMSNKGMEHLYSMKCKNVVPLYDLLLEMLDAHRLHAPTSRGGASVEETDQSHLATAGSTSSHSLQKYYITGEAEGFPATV
# Test: Binding affinity to purified human ERalpha LBD incubated for 2 hrs by fluorescence tracer based competitive fluorometric binding assay relative to estradiol
# Conditions: not given
row,Structure (SMILES),RBA [%]
1,CCN(c1ccccc1)S(=O)(=O)[C@H]1C[C@H]2O[C@@H]1C(c1ccc(OCC(O)CO)cc1)=C2c1ccc(O)cc1 (relative stereo),0.26
2,CCN(c1ccc(OCCCCCCCCCCC(=O)O)cc1)S(=O)(=O)[C@H]1C[C@H]2O[C@@H]1C(c1ccc(O)cc1)=C2c1ccc(O)cc1 (relative stereo),0.57
3,CCN(c1ccc(OCCCCCCCC(=O)O)cc1)S(=O)(=O)[C@H]1C[C@H]2O[C@@H]1C(c1ccc(O)cc1)=C2c1ccc(O)cc1 (relative stereo),3.21
4,CCN(c1ccccc1)S(=O)(=O)[C@H]1C[C@H]2O[C@@H]1C(c1ccc(OCCCCCCCCCCC(=O)O)cc1)=C2c1ccc(O)cc1 (relative stereo),0.93
5,COc1ccc(N(CC(F)(F)F)S(=O)(=O)[C@H]2C[C@H]3O[C@@H]2C(c2ccc(OCCCCCCCC(=O)O)cc2)=C3c2ccc(O)cc2)cc1 (relative stereo),0.07
6,CCN(c1ccc(OCCN2CCCCC2)cc1)S(=O)(=O)[C@H]1C[C@H]2O[C@@H]1C(c1ccc(O)cc1)=C2c1ccc(O)cc1 (relative stereo),0.58
7,COc1ccc(N(CC(F)(F)F)S(=O)(=O)[C@H]2C[C@H]3O[C@@H]2C(c2ccc(OCCCCCCC(=O)O)cc2)=C3c2ccc(O)cc2)cc1 (relative stereo),1.82

# Test system: MCF7
# Test: cells
# Conditions: Homo sapiens, MCF7, 72 h
# Description: Antiproliferative activity against human MCF7 cells incubated for 72 hrs by MTT assay
row,Structure (SMILES),IC50 [µM]
1,CC/C(=C(\c1ccc(O)cc1)c1ccc(OCCN(C)C)cc1)c1ccccc1 [AFIMOXIFENE],10.1
2,CCN(c1ccccc1)S(=O)(=O)[C@H]1C[C@H]2O[C@@H]1C(c1ccc(OCC(O)CO)cc1)=C2c1ccc(O)cc1 (relative stereo),33.6
3,CCN(c1ccc(OCCCCCCCCCCC(=O)O)cc1)S(=O)(=O)[C@H]1C[C@H]2O[C@@H]1C(c1ccc(O)cc1)=C2c1ccc(O)cc1 (relative stereo),18.4
4,CCN(c1ccc(OCCCCCCCC(=O)O)cc1)S(=O)(=O)[C@H]1C[C@H]2O[C@@H]1C(c1ccc(O)cc1)=C2c1ccc(O)cc1 (relative stereo),24.9
5,CCN(c1ccccc1)S(=O)(=O)[C@H]1C[C@H]2O[C@@H]1C(c1ccc(OCCCCCCCCCCC(=O)O)cc1)=C2c1ccc(O)cc1 (relative stereo),10.3
6,COc1ccc(N(CC(F)(F)F)S(=O)(=O)[C@H]2C[C@H]3O[C@@H]2C(c2ccc(OCCCCCCCC(=O)O)cc2)=C3c2ccc(O)cc2)cc1 (relative stereo),40.3
7,CCN(c1ccc(OCCN2CCCCC2)cc1)S(=O)(=O)[C@H]1C[C@H]2O[C@@H]1C(c1ccc(O)cc1)=C2c1ccc(O)cc1 (relative stereo),5.4
8,COc1ccc(N(CC(F)(F)F)S(=O)(=O)[C@H]2C[C@H]3O[C@@H]2C(c2ccc(OCCCCCCC(=O)O)cc2)=C3c2ccc(O)cc2)cc1 (relative stereo),15.9

# Target: Estrogen receptor beta (Homo sapiens) (UniProt Q92731)
# Test: Binding affinity to ERbeta (unknown origin) incubated for 2 hrs by fluorescence tracer based competitive fluorometric binding assay relative to estradiol
# Conditions: not given
# Chain of Estrogen receptor beta (Homo sapiens) (Q92731 whole entry): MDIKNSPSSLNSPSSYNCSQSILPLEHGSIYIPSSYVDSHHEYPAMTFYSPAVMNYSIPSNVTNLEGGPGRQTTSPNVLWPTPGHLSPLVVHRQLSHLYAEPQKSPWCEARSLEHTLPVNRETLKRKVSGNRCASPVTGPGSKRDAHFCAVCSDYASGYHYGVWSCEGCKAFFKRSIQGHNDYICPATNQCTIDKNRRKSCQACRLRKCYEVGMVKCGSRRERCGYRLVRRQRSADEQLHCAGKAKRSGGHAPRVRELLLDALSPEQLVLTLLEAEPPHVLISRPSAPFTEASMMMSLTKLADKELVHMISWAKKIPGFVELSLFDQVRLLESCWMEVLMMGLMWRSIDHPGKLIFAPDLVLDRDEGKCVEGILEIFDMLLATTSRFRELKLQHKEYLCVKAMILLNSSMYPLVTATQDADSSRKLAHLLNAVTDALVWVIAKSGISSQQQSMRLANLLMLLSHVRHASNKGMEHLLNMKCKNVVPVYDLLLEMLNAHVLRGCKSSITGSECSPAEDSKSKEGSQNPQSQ
row,Structure (SMILES),RBA [%]
1,CCN(c1ccccc1)S(=O)(=O)[C@H]1C[C@H]2O[C@@H]1C(c1ccc(OCC(O)CO)cc1)=C2c1ccc(O)cc1 (relative stereo),0.28
2,CCN(c1ccc(OCCCCCCCCCCC(=O)O)cc1)S(=O)(=O)[C@H]1C[C@H]2O[C@@H]1C(c1ccc(O)cc1)=C2c1ccc(O)cc1 (relative stereo),< 0.01
3,CCN(c1ccc(OCCCCCCCC(=O)O)cc1)S(=O)(=O)[C@H]1C[C@H]2O[C@@H]1C(c1ccc(O)cc1)=C2c1ccc(O)cc1 (relative stereo),0.42
4,CCN(c1ccccc1)S(=O)(=O)[C@H]1C[C@H]2O[C@@H]1C(c1ccc(OCCCCCCCCCCC(=O)O)cc1)=C2c1ccc(O)cc1 (relative stereo),0.13
5,COc1ccc(N(CC(F)(F)F)S(=O)(=O)[C@H]2C[C@H]3O[C@@H]2C(c2ccc(OCCCCCCCC(=O)O)cc2)=C3c2ccc(O)cc2)cc1 (relative stereo),< 0.01
6,CCN(c1ccc(OCCN2CCCCC2)cc1)S(=O)(=O)[C@H]1C[C@H]2O[C@@H]1C(c1ccc(O)cc1)=C2c1ccc(O)cc1 (relative stereo),0.25
7,COc1ccc(N(CC(F)(F)F)S(=O)(=O)[C@H]2C[C@H]3O[C@@H]2C(c2ccc(OCCCCCCC(=O)O)cc2)=C3c2ccc(O)cc2)cc1 (relative stereo),0.13

# Target: T1, Estrogen receptor (Homo sapiens)
# Test: Induction of ERalpha protein degradation in human MCF7 cells at 5 uM incubated for 20 hrs by Western blot analysis relative to control
# Assay type: cell-based
# Conditions: not given
row,Structure (SMILES),Activity [%]
1,COc1ccc(N(CC(F)(F)F)S(=O)(=O)[C@H]2C[C@H]3O[C@@H]2C(c2ccc(O)cc2)=C3c2ccc(O)cc2)cc1,100

# Target: T1, Estrogen receptor (Homo sapiens)
# Test: Induction of ERalpha protein degradation in human MCF7 cells assessed as ERalpha protein level at 10 uM incubated for 20 hrs by Western blot analysis relative to control
# Assay type: cell-based
# Conditions: not given
row,Structure (SMILES),Activity [%]
1,CCN(c1ccccc1)S(=O)(=O)[C@H]1C[C@H]2O[C@@H]1C(c1ccc(OCC(O)CO)cc1)=C2c1ccc(O)cc1 (relative stereo),117
2,CCN(c1ccc(OCCCCCCCCCCC(=O)O)cc1)S(=O)(=O)[C@H]1C[C@H]2O[C@@H]1C(c1ccc(O)cc1)=C2c1ccc(O)cc1 (relative stereo),29
3,CCN(c1ccc(OCCCCCCCC(=O)O)cc1)S(=O)(=O)[C@H]1C[C@H]2O[C@@H]1C(c1ccc(O)cc1)=C2c1ccc(O)cc1 (relative stereo),78
4,CCN(c1ccccc1)S(=O)(=O)[C@H]1C[C@H]2O[C@@H]1C(c1ccc(OCCCCCCCCCCC(=O)O)cc1)=C2c1ccc(O)cc1 (relative stereo),51
5,COc1ccc(N(CC(F)(F)F)S(=O)(=O)[C@H]2C[C@H]3O[C@@H]2C(c2ccc(OCCCCCCCC(=O)O)cc2)=C3c2ccc(O)cc2)cc1 (relative stereo),42
6,CCN(c1ccc(OCCN2CCCCC2)cc1)S(=O)(=O)[C@H]1C[C@H]2O[C@@H]1C(c1ccc(O)cc1)=C2c1ccc(O)cc1 (relative stereo),89
7,COc1ccc(N(CC(F)(F)F)S(=O)(=O)[C@H]2C[C@H]3O[C@@H]2C(c2ccc(OCCCCCCC(=O)O)cc2)=C3c2ccc(O)cc2)cc1 (relative stereo),32
